Source: the OligoGym collection
Oligonucleotides are written 5' to 3', each unit as a sugar letter and its base; * is a phosphorothioate linkage, no mark a phosphodiester; rarer units and linkages stand in square brackets, end groups in braces. Plain capitals give the bases only. Oligonucleotides are given in HELM: sugar(base)linkage, 5' to 3'; d 2'-deoxyribose, r ribose, m 2'-O-methylribose, p phosphate. ss, as = sense and antisense strand; d = 2'-deoxy (DNA); r = 2'-OH (RNA)

biological target: UBE2I; assay: reporter assay of Huesken 2005; settings: siRNA
Note: test concentration or dose not given here.

Point of comparison: “sense rCrArGrArGrGrCrCrUrArCrArCrGrArUrUrUrAdTdT / antisense rUrArArArUrCrGrUrGrUrArGrGrCrCrUrCrUrGdCdT”, normalised inhibition (eCFP-eYFP dual reporter) 83.8%. Against it:
- sense rCrArGrArUrCrCrUrArUrUrArGrGrArArUrArCdTdT / antisense rGrUrArUrUrCrCrUrArArUrArGrGrArUrCrUrGdTdT — lower, 74.4%
- sense rCrArGrUrGrUrGrCrCrUrGrUrCrCrArUrCrUrUdTdT / antisense rArArGrArUrGrGrArCrArGrGrCrArCrArCrUrGdTdC — lower, 80.1%
- sense rCrCrArGrCrCrArUrCrArCrArArUrCrArArArCdTdT / antisense rGrUrUrUrGrArUrUrGrUrGrArUrGrGrCrUrGrGdCdC — lower, 56%
- sense rCrCrArGrGrArArArGrArArArGrGrGrArCrUrCdTdT / antisense rGrArGrUrCrCrCrUrUrUrCrUrUrUrCrCrUrGrGdAdA — lower, 54.9%
- sense rCrCrCrGrArUrGrGrCrArCrGrArUrGrArArCrCdTdT / antisense rGrGrUrUrCrArUrCrGrUrGrCrCrArUrCrGrGrGdAdT — lower, 55%
- sense rCrCrGrArUrGrGrCrArCrGrArUrGrArArCrCrUdTdT / antisense rArGrGrUrUrCrArUrCrGrUrGrCrCrArUrCrGrGdGdA — lower, 81.8%
- sense rCrCrUrCrArUrGrArArCrUrGrGrGrArGrUrGrCdTdT / antisense rGrCrArCrUrCrCrCrArGrUrUrCrArUrGrArGrGdTdT — lower, 72.2%
- sense rCrCrUrUrCrGrGrGrGrArCrArGrUrGrUrGrCrCdTdT / antisense rGrGrCrArCrArCrUrGrUrCrCrCrCrGrArArGrGdGdT — lower, 51.1%
- sense rCrGrArArUrGrUrGrUrArCrCrCrUrUrCrGrGrGdTdT / antisense rCrCrCrGrArArGrGrGrUrArCrArCrArUrUrCrGdGdG — lower, 45.1%
- sense rCrGrArUrGrArArCrCrUrCrArUrGrArArCrUrGdTdT / antisense rCrArGrUrUrCrArUrGrArGrGrUrUrCrArUrCrGdTdG — lower, 78.2%
- sense rCrGrGrArUrGrCrUrUrUrUrCrArArArGrArUrGdTdT / antisense rCrArUrCrUrUrUrGrArArArArGrCrArUrCrCrGdTdA — higher, 87.3%
- sense rCrUrUrCrUrArArArUrGrArArCrCrArArArUrAdTdT / antisense rUrArUrUrUrGrGrUrUrCrArUrUrUrArGrArArGdTdT — higher, 88.8%
- sense rGrArArArGrArArArGrGrGrArCrUrCrCrGrUrGdTdT / antisense rCrArCrGrGrArGrUrCrCrCrUrUrUrCrUrUrUrCdCdT — lower, 53.1%
- sense rGrArArArGrGrGrArCrUrCrCrGrUrGrGrGrArAdTdT / antisense rUrUrCrCrCrArCrGrGrArGrUrCrCrCrUrUrUrCdTdT — higher, 89.3%
- sense rGrArGrGrArGrGrArCrArArGrGrArCrUrGrGrAdTdT / antisense rUrCrCrArGrUrCrCrUrUrGrUrCrCrUrCrCrUrCdTdA — lower, 70.5%
- sense rGrArGrGrCrUrUrGrUrUrUrArArArCrUrArCrGdTdT / antisense rCrGrUrArGrUrUrUrArArArCrArArGrCrCrUrCdCdT — lower, 73.2%
- sense rGrArGrUrGrCrGrCrCrArUrUrCrCrArGrGrArAdTdT / antisense rUrUrCrCrUrGrGrArArUrGrGrCrGrCrArCrUrCdCdC — lower, 72.6%
- sense rGrCrArCrGrArUrGrArArCrCrUrCrArUrGrArAdTdT / antisense rUrUrCrArUrGrArGrGrUrUrCrArUrCrGrUrGrCdCdA — higher, 84.4%
- sense rGrCrCrUrArCrArCrGrArUrUrUrArCrUrGrCrCdTdT / antisense rGrGrCrArGrUrArArArUrCrGrUrGrUrArGrGrCdCdT — lower, 67.8%
- sense rGrCrUrUrGrUrUrUrArArArCrUrArCrGrGrArUdTdT / antisense rArUrCrCrGrUrArGrUrUrUrArArArCrArArGrCdCdT — higher, 92.2%
- sense rGrGrArCrArArGrGrArCrUrGrGrArGrGrCrCrAdTdT / antisense rUrGrGrCrCrUrCrCrArGrUrCrCrUrUrGrUrCrCdTdC — higher, 85.9%
- sense rGrGrArGrGrCrUrUrGrUrUrUrArArArCrUrArCdTdT / antisense rGrUrArGrUrUrUrArArArCrArArGrCrCrUrCrCdTdT — lower, 82.5%
- sense rGrGrGrGrArCrArGrUrGrUrGrCrCrUrGrUrCrCdTdT / antisense rGrGrArCrArGrGrCrArCrArCrUrGrUrCrCrCrCdGdA — lower, 47.8%
- sense rGrUrArArArUrUrCrGrArArCrCrArCrCrArUrUdTdT / antisense rArArUrGrGrUrGrGrUrUrCrGrArArUrUrUrArCdAdT — higher, 89.2%
- sense rUrArCrArCrGrArUrUrUrArCrUrGrCrCrArArAdTdT / antisense rUrUrUrGrGrCrArGrUrArArArUrCrGrUrGrUrAdGdG — higher, 92.9%
- sense rUrArUrUrArGrGrArArUrArCrArGrGrArArCrUdTdT / antisense rArGrUrUrCrCrUrGrUrArUrUrCrCrUrArArUrAdGdG — lower, 71.9%
- sense rUrArUrUrUrCrArCrCrCrGrArArUrGrUrGrUrAdTdT / antisense rUrArCrArCrArUrUrCrGrGrGrUrGrArArArUrAdAdT — lower, 78.9%
- sense rUrCrCrCrGrArUrGrGrCrArCrGrArUrGrArArCdTdT / antisense rGrUrUrCrArUrCrGrUrGrCrCrArUrCrGrGrGrAdTdT — lower, 48.8%
- sense rUrCrCrGrUrGrGrGrArArGrGrArGrGrCrUrUrGdTdT / antisense rCrArArGrCrCrUrCrCrUrUrCrCrCrArCrGrGrAdGdT — lower, 52.4%
- sense rUrGrArUrUrArUrCrCrArUrCrUrUrCrGrCrCrAdTdT / antisense rUrGrGrCrGrArArGrArUrGrGrArUrArArUrCrAdTdC — lower, 59%
- sense rUrGrGrGrArArGrGrArGrGrCrUrUrGrUrUrUrAdTdT / antisense rUrArArArCrArArGrCrCrUrCrCrUrUrCrCrCrAdCdG — lower, 78%
- sense rUrGrUrGrCrCrUrGrUrCrCrArUrCrUrUrArGrAdTdT / antisense rUrCrUrArArGrArUrGrGrArCrArGrGrCrArCrAdCdT — lower, 76%
- sense rUrGrUrUrUrArArArCrUrArCrGrGrArUrGrCrUdTdT / antisense rArGrCrArUrCrCrGrUrArGrUrUrUrArArArCrAdAdG — lower, 68.1%
- sense rUrUrArArArCrUrArCrGrGrArUrGrCrUrUrUrUdTdT / antisense rArArArArGrCrArUrCrCrGrUrArGrUrUrUrArAdAdC — lower, 50.2%
- sense rUrUrCrArArArGrArUrGrArUrUrArUrCrCrArUdTdT / antisense rArUrGrGrArUrArArUrCrArUrCrUrUrUrGrArAdAdA — lower, 65.2%
- sense rUrUrCrArCrCrCrGrArArUrGrUrGrUrArCrCrCdTdT / antisense rGrGrGrUrArCrArCrArUrUrCrGrGrGrUrGrArAdAdT — lower, 49.6%
- sense rUrUrCrGrArArCrCrArCrCrArUrUrArUrUrUrCdTdT / antisense rGrArArArUrArArUrGrGrUrGrGrUrUrCrGrArAdTdT — lower, 59.1%

biological target: CDC34; assay: reporter assay of Huesken 2005; settings: siRNA

Point of comparison: “RNA1{r(A)p.r(A)p.r(C)p.r(G)p.r(U)p.r(G)p.r(G)p.r(A)p.r(C)p.r(G)p.r(C)p.r(C)p.r(U)p.r(C)p.r(C)p.r(G)p.r(U)p.r(G)p.r(A)p.d(T)p.d(T)}|RNA2{r(U)p.r(C)p.r(A)p.r(C)p.r(G)p.r(G)p.r(A)p.r(G)p.r(G)p.r(C)p.r(G)p.r(U)p.r(C)p.r(C)p.r(A)p.r(C)p.r(G)p.r(U)p.r(U)p.d(T)p.d(G)}$$$RNA1{StrandType:ss}|RNA2{StrandType:as}$”, normalised inhibition (eCFP-eYFP dual reporter) 55.2%. Against it:
- RNA1{r(A)p.r(A)p.r(G)p.r(A)p.r(C)p.r(C)p.r(A)p.r(A)p.r(G)p.r(G)p.r(C)p.r(G)p.r(C)p.r(C)p.r(G)p.r(G)p.r(C)p.r(G)p.r(C)p.d(T)p.d(T)}|RNA2{r(G)p.r(C)p.r(G)p.r(C)p.r(C)p.r(G)p.r(G)p.r(C)p.r(G)p.r(C)p.r(C)p.r(U)p.r(U)p.r(G)p.r(G)p.r(U)p.r(C)p.r(U)p.r(U)p.d(C)p.d(A)}$$$RNA1{StrandType:ss}|RNA2{StrandType:as}$ — lower, 25.5%
- RNA1{r(A)p.r(A)p.r(G)p.r(A)p.r(U)p.r(G)p.r(U)p.r(G)p.r(G)p.r(C)p.r(A)p.r(C)p.r(C)p.r(C)p.r(U)p.r(A)p.r(A)p.r(C)p.r(A)p.d(T)p.d(T)}|RNA2{r(U)p.r(G)p.r(U)p.r(U)p.r(A)p.r(G)p.r(G)p.r(G)p.r(U)p.r(G)p.r(C)p.r(C)p.r(A)p.r(C)p.r(A)p.r(U)p.r(C)p.r(U)p.r(U)p.d(G)p.d(G)}$$$RNA1{StrandType:ss}|RNA2{StrandType:as}$ — lower, 36.7%
- RNA1{r(A)p.r(C)p.r(A)p.r(G)p.r(A)p.r(C)p.r(A)p.r(U)p.r(C)p.r(A)p.r(U)p.r(C)p.r(C)p.r(G)p.r(G)p.r(A)p.r(A)p.r(G)p.r(C)p.d(T)p.d(T)}|RNA2{r(G)p.r(C)p.r(U)p.r(U)p.r(C)p.r(C)p.r(G)p.r(G)p.r(A)p.r(U)p.r(G)p.r(A)p.r(U)p.r(G)p.r(U)p.r(C)p.r(U)p.r(G)p.r(U)p.d(G)p.d(T)}$$$RNA1{StrandType:ss}|RNA2{StrandType:as}$ — lower, 34.9%
- RNA1{r(A)p.r(C)p.r(C)p.r(A)p.r(U)p.r(U)p.r(C)p.r(U)p.r(C)p.r(C)p.r(U)p.r(G)p.r(A)p.r(G)p.r(U)p.r(G)p.r(U)p.r(G)p.r(A)p.d(T)p.d(T)}|RNA2{r(U)p.r(C)p.r(A)p.r(C)p.r(A)p.r(C)p.r(U)p.r(C)p.r(A)p.r(G)p.r(G)p.r(A)p.r(G)p.r(A)p.r(A)p.r(U)p.r(G)p.r(G)p.r(U)p.d(C)p.d(C)}$$$RNA1{StrandType:ss}|RNA2{StrandType:as}$ — higher, 81.3%
